Publication PMC12751012, “Nanoscale Direct-to-Biology Optimization and Structural Insights into Selective S. aureus TrmD Inhibitors” (Journal of Medicinal Chemistry, 2025)
Where two headings read alike, the source gives them in different places.

Assays:
HEK293 cells = assay: Cell Titer Glo cell viability assay; type: cell-based, human; conditions: 48 h
Experimental: (§1) Cell viability assays were conducted with HEK293 cells (ATCC) to investigate the compounds’ mammalian cytotoxicity. Cells were cultured according to standard protocols (DMEM, 10% FBS, 1× Penicillin/Streptomycin, 37 °C, 5% CO2). Cell viability was assessed using the Promega CellTiterGlo assay kit. Briefly, 1000 cells were seeded in white half a rea 96-well plates (Greiner) and incubated for 48 h with inhibitors from DMSO stocks (final: 0.1% DMSO) under standard cultivation conditions. Then, the cell titer reagent was added to each well according to the manufacturer’s protocols, and luminescence was measured using a Tecan Spark 10 M plate reader.

S. aureus TrmD = molecular target: T1, S. aureus TrmD (Staphylococcus aureus, UniProt Q2FZ43); assay: nanoSAR direct-to-biology FP displacement screening of crude triazoles; type: binding; conditions: read-out: % displaced tracer
T1 construct: made in house; host or cells: E. coli BL21
T1 sequence (Q2FZ43 1-245): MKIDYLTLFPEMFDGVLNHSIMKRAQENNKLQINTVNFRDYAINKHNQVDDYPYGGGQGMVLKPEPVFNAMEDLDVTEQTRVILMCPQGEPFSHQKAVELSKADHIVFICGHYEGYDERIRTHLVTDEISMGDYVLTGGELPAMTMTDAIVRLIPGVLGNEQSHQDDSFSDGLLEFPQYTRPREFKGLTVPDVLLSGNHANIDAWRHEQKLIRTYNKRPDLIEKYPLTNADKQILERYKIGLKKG
In short: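 Crude CuAAC triazoles from alkyne 7 and 320 diverse azides were screened by FP displacement of 10 nM tracer 4 from 500 nM S. aureus TrmD. Buffer was 40 mM Tris HCl, 100 mM NaCl, 10 mM MgCl2, 5% glycerol, pH 7.5.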

H. influenzae TrmD = molecular target: T2, H. influenzae TrmD (Haemophilus influenzae, UniProt P43912); assay: Fluorescence polarization (FP) assay, tracer 3 (Cy5TPD), H. influenzae TrmD; type: binding
T2 construct: host or cells: E. coli BL21
T2 sequence (P43912 whole entry): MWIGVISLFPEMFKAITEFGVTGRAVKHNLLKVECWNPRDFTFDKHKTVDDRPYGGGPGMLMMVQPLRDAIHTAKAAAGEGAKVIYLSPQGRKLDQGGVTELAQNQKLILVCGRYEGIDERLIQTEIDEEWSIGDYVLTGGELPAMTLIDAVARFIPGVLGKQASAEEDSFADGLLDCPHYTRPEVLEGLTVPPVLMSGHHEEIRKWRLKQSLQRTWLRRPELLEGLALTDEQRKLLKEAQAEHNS
Experimental: Fluorescence polarization (FP) assays were performed as follows. The assays for H. influenzae TrmD have been described previously. All assays were conducted in technical triplicate using black 96-well half area plates. For the FP assays, a tracer (20 nM Cy5TPD for E. coli and H. influenzae TrmD, 10 nM tracer 4 for S. aureus TrmD) was mixed with the respective enzyme (2 μM E. coli TrmD, 2 μM H. influenzae TrmD, 500 nM S. aureus TrmD) in buffer (E. coli and H. influenzae TrmD: 50 mM HEPES, 500 mM NaCl, 5% Glycerol, pH 7.5, S. aureus TrmD: 40 mM Tris HCl, 100 mM NaCl, 10 mM MgCl2, 5% Glycerol, pH 7.5). The compounds were added in varying concentrations for K D-value determination. […] The Z-factor for tracer 4 was determined by measuring 48 replicates of the free tracer (positive controls, PC) and 48 replicates of a mixture of enzyme and tracer (negative controls, NC). The Z-factor is defined in terms of the means (μ) and standard deviations (σ) of the positive and negative controls and calculated as Z = 1–(3*(σnc + σpc)/(μnc–μpc)). […] Polarization values (mP) were determined from polarization-specific parallel and orthogonal fluorescence intensities. K D-values were calculated in GraphPad Prism 8.0.1 using the four-parameter Hill equation: y(% tracer bound) = bottom + ([ligand]-slope) × (top–bottom)/([ligand]-slope + K Dslope).

[1] = Cell Titer Glo cell viability assay; type: cell-based, human; conditions: human, HEK293 cells
Experimental: as §1

[2] = crude triazole at 1 μM, assuming full conversion, 500 nM TrmD, 10 nM tracer 4
[3] = read-out: KD H. influenzae TrmD (FP)

SMILES	cell viability / mammalian cytotoxicity HEK293 (HEK293 cells; up to 100 μM)	inhibition at 1 µM (S. aureus TrmD)	Kd (H. influenzae TrmD; KD H. influenzae TrmD (FP))	CC50 at 48 h [1]	mammalian cytotoxicity HEK293 (HEK293 cells; at 100 μM)	inhibition at 1 µM (S. aureus TrmD; [2])	Kd (H. influenzae TrmD; [3])	mammalian cytotoxicity HEK293 (HEK293 cells; at >10 μM)
NC(N)=NCCn1cc(-c2c[nH]c3nc[nH]c(=O)c23)nn1 [Compound 8h]	no mammalian cytotoxicity	97%	> 30 µM	–	–	–	–	–
N#Cc1cccc(Cn2cc(-c3c[nH]c4nc[nH]c(=O)c34)nn2)c1 [Compound 8b, 3-((4-(4-Oxo-4,7-dihydro-3H-pyrrolo[2,3-d]pyrimidin-5-yl)-1H-1,2,3-triazol-1-yl)methyl)benzonitrile]	–	–	–	> 100 µM	Slight cytotoxic effects	100%	> 30 µM	–
O=c1[nH]cnc2[nH]cc(-c3cn(Cc4ccc5ncccc5c4)nn3)c12 [Compound 8d, 5-(1-(Quinolin-6-ylmethyl)-1H-1,2,3-triazol-4-yl)-3,7-dihydro-4H-pyrrolo[2,3-d]pyrimidin-4-one]	–	–	–	> 100 µM	–	98%	> 30 µM	–
O=c1[nH]cnc2[nH]cc(-c3cn(CC4CCC5C(CC4)C5(F)F)nn3)c12 (stereo not drawn) [Compound 8c, 5-(1-((8,8-Difluorobicyclo[5.1.0]octan-4-yl)methyl)-1H-1,2,3-triazol-4-yl)-3,7-dihydro-4H-pyrrolo[2,3-d]pyrimidin-4-one]	–	–	–	> 100 µM	Slight cytotoxic effects	98%	> 30 µM	–
N[C@@H]1CCC[C@@H]1Cn1cc(-c2c[nH]c3nc[nH]c(=O)c23)nn1 [Compound 8e, 5-(1-(((1R,2R)-2-Aminocyclopentyl)methyl)-1H-1,2,3-triazol-4-yl)-3,7-dihydro-4H-pyrrolo[2,3-d]pyrimidin-4-one]	–	–	–	> 100 µM	–	93%	> 30 µM	Slight cytotoxic effects
